Results as given in PubChem BioAssay (NCI).
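1) Cells in 96-well plates. 2) Compound, 48 h, 5 concentrations. 3) Linear interpolation between surrounding doses. 4) Unreached endpoint = highest concentration. GI50 is the concentration that inhibits growth by half. The concentration for full growth arrest is given as TGI.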

Tests used:
Assay in all cases: inhibition of tumour cell growth, NCI panel, 48 h; in the data active = GI50 below about 0.43 µM; inactive = the rest
PC-3 prostate = test system: PC-3 prostate
K-562 leukemia = test system: K-562 leukemia
IGROV1 ovarian = test system: IGROV1 ovarian
SK-OV-3 ovarian = test system: SK-OV-3 ovarian
NCI/ADR-RES ovarian = test system: NCI/ADR-RES ovarian
NCI-H23 lung = test system: NCI-H23 lung
M14 melanoma = test system: M14 melanoma
HL-60(TB) leukemia = test system: HL-60(TB) leukemia
LOX IMVI melanoma = test system: LOX IMVI melanoma
RXF 393 renal = test system: RXF 393 renal
HOP-92 NSCLC = test system: HOP-92 NSCLC
SW-620 colon = test system: SW-620 colon
SF-295 CNS = test system: SF-295 CNS
SNB-19 CNS = test system: SNB-19 CNS
SR leukemia = test system: SR leukemia
HCT-15 colon = test system: HCT-15 colon
CAKI-1 renal = test system: CAKI-1 renal
SF-268 CNS = test system: SF-268 CNS
CCRF-CEM leukemia = test system: CCRF-CEM leukemia
T-47D breast = test system: T-47D breast
BT-549 breast = test system: BT-549 breast
UO-31 renal = test system: UO-31 renal
SF-539 CNS = test system: SF-539 CNS
MCF7 breast = test system: MCF7 breast
OVCAR-4 ovarian = test system: OVCAR-4 ovarian
DU-145 prostate = test system: DU-145 prostate
KM12 colon = test system: KM12 colon
HT29 colon = test system: HT29 colon
MOLT-4 leukemia = test system: MOLT-4 leukemia
TK-10 renal = test system: TK-10 renal
HS 578T breast = test system: HS 578T breast
OVCAR-8 ovarian = test system: OVCAR-8 ovarian
ACHN renal = test system: ACHN renal
U251 CNS = test system: U251 CNS
NCI-H460 lung = test system: NCI-H460 lung
COLO 205 colon = test system: COLO 205 colon
MDA-MB-231 breast = test system: MDA-MB-231 breast
786-0 renal = test system: 786-0 renal
UACC-257 melanoma = test system: UACC-257 melanoma
SK-MEL-28 melanoma = test system: SK-MEL-28 melanoma
NCI-H522 lung = test system: NCI-H522 lung
MDA-MB-435 = test system: MDA-MB-435
HCC-2998 colon = test system: HCC-2998 colon
HCT-116 colon = test system: HCT-116 colon
EKVX NSCLC = test system: EKVX NSCLC
SNB-75 CNS = test system: SNB-75 CNS
RPMI-8226 leukemia = test system: RPMI-8226 leukemia
OVCAR-3 ovarian = test system: OVCAR-3 ovarian
A549 NSCLC = test system: A549 NSCLC
SK-MEL-2 melanoma = test system: SK-MEL-2 melanoma
SK-MEL-5 melanoma = test system: SK-MEL-5 melanoma
NCI-H226 lung = test system: NCI-H226 lung
MALME-3M melanoma = test system: MALME-3M melanoma
UACC-62 melanoma = test system: UACC-62 melanoma
A498 renal = test system: A498 renal
HOP-62 NSCLC = test system: HOP-62 NSCLC
SN12C renal = test system: SN12C renal
OVCAR-5 ovarian = test system: OVCAR-5 ovarian

CCn1cc(-c2ccnc3[nH]ccc23)c(-c2cccc(NC(=O)Nc3ccc(OCc4ccccc4)cc3)c2)n1
7.88 µM: TGI (RXF 393 renal)
> 20.3 µM: TGI (HT29 colon)
inactive: GI50 (PC-3 prostate) 10.6 µM | GI50 (K-562 leukemia) 4.72 µM | GI50 (IGROV1 ovarian) 18.1 µM | GI50 (SK-OV-3 ovarian) > 22.4 µM | GI50 (NCI/ADR-RES ovarian) > 25 µM | GI50 (NCI-H23 lung) 16.5 µM | GI50 (M14 melanoma) 14.4 µM | GI50 (HL-60(TB) leukemia) 4.23 µM | GI50 (LOX IMVI melanoma) 6.01 µM | GI50 (RXF 393 renal) 1.28 µM | GI50 (HOP-92 NSCLC) > 25 µM | GI50 (SW-620 colon) 20.2 µM | GI50 (SF-295 CNS) 4.55 µM | GI50 (SNB-19 CNS) > 23.9 µM | GI50 (SR leukemia) 7.25 µM | GI50 (HCT-15 colon) 6.28 µM | GI50 (CAKI-1 renal) 6.71 µM | GI50 (SF-268 CNS) > 19.7 µM | GI50 (CCRF-CEM leukemia) 11.5 µM | GI50 (T-47D breast) 6.65 µM | GI50 (BT-549 breast) > 21.9 µM | GI50 (UO-31 renal) 15 µM | GI50 (SF-539 CNS) 12.9 µM | GI50 (MCF7 breast) 8.15 µM | GI50 (OVCAR-4 ovarian) > 23.4 µM | GI50 (DU-145 prostate) > 25 µM | GI50 (KM12 colon) 7.44 µM | GI50 (HT29 colon) 4.18 µM | GI50 (MOLT-4 leukemia) 6.85 µM | GI50 (TK-10 renal) 24.8 µM | GI50 (HS 578T breast) 4.85 µM | GI50 (OVCAR-8 ovarian) 15.7 µM | GI50 (ACHN renal) 15.2 µM | GI50 (U251 CNS) 4.75 µM | GI50 (NCI-H460 lung) 7.45 µM | GI50 (COLO 205 colon) 11.2 µM | GI50 (MDA-MB-231 breast) 6.57 µM | GI50 (786-0 renal) 6.82 µM | GI50 (UACC-257 melanoma) > 24.1 µM | GI50 (SK-MEL-28 melanoma) 18.1 µM | GI50 (NCI-H522 lung) 2.98 µM | GI50 (MDA-MB-435) 11 µM | GI50 (HCC-2998 colon) 13.2 µM | GI50 (HCT-116 colon) 12.1 µM | GI50 (EKVX NSCLC) 21.8 µM | GI50 (SNB-75 CNS) 4.35 µM | GI50 (RPMI-8226 leukemia) 4.19 µM | GI50 (OVCAR-3 ovarian) 6.24 µM | GI50 (A549 NSCLC) 2.85 µM | GI50 (SK-MEL-2 melanoma) 8.14 µM | GI50 (SK-MEL-5 melanoma) 13.5 µM | GI50 (NCI-H226 lung) > 25 µM | GI50 (MALME-3M melanoma) > 22.6 µM | GI50 (UACC-62 melanoma) 5.89 µM | GI50 (A498 renal) 7.64 µM | GI50 (HOP-62 NSCLC) > 14.9 µM | GI50 (SN12C renal) > 25 µM | GI50 (OVCAR-5 ovarian) 22.1 µM
19.6 µM: TGI (OVCAR-3 ovarian)
> 25 µM: TGI (PC-3 prostate) | TGI (K-562 leukemia) | TGI (IGROV1 ovarian) | TGI (SK-OV-3 ovarian) | TGI (NCI/ADR-RES ovarian) | TGI (NCI-H23 lung) | TGI (M14 melanoma) | TGI (LOX IMVI melanoma) | TGI (HOP-92 NSCLC) | TGI (SW-620 colon) | TGI (SF-295 CNS) | TGI (SNB-19 CNS) | TGI (SR leukemia) | TGI (HCT-15 colon) | TGI (CAKI-1 renal) | TGI (SF-268 CNS) | TGI (CCRF-CEM leukemia) | TGI (T-47D breast) | TGI (BT-549 breast) | TGI (UO-31 renal) | TGI (SF-539 CNS) | TGI (MCF7 breast) | TGI (OVCAR-4 ovarian) | TGI (DU-145 prostate) | TGI (KM12 colon) | TGI (MOLT-4 leukemia) | TGI (TK-10 renal) | TGI (HS 578T breast) | TGI (OVCAR-8 ovarian) | TGI (ACHN renal) | TGI (U251 CNS) | TGI (NCI-H460 lung) | TGI (COLO 205 colon) | TGI (MDA-MB-231 breast) | TGI (786-0 renal) | TGI (UACC-257 melanoma) | TGI (SK-MEL-28 melanoma) | TGI (NCI-H522 lung) | TGI (MDA-MB-435) | TGI (HCC-2998 colon) | TGI (HCT-116 colon) | TGI (EKVX NSCLC) | TGI (SNB-75 CNS) | TGI (RPMI-8226 leukemia) | TGI (A549 NSCLC) | TGI (SK-MEL-2 melanoma) | TGI (SK-MEL-5 melanoma) | TGI (NCI-H226 lung) | TGI (MALME-3M melanoma) | TGI (UACC-62 melanoma) | TGI (A498 renal) | TGI (HOP-62 NSCLC) | TGI (SN12C renal) | TGI (OVCAR-5 ovarian)
17.2 µM: TGI (HL-60(TB) leukemia)
